Assay results published in US11660293B2, “Substituted 2-azabicyclo[3.1.1]heptane and 2-azabicyclo[3.2.1]octane derivatives as orexin receptor antagonists” (Chronos Therapeutics Limited, priority 2017, dated 2023).

Assays:
[1] = target: T1, human Orexin type 2 receptors (Homo sapiens (Human), UniProt O43614); assay: Intracellular calcium measurement (FLIPR), antagonism of Orexin-A at EC80 in CHO-hOX2 cells
[2] = target: T2, human Orexin type 1 receptors (Homo sapiens (Human), UniProt O43613); assay: Intracellular calcium measurement (FLIPR), antagonism of Orexin-A at EC80 in CHO-hOX1 cells
[3] = target: T1, human Orexin type 2 receptors; assay: Scintillation Proximity Assay (SPA) binding assay, [3H]EMPA displacement, HEK-hOX2 membranes
[4] = target: T2, human Orexin type 1 receptors; assay: Scintillation Proximity Assay (SPA) binding assay, [3H]SB-674042 displacement, CHO-hOX1 membranes

T2 sequence (O43613 whole entry): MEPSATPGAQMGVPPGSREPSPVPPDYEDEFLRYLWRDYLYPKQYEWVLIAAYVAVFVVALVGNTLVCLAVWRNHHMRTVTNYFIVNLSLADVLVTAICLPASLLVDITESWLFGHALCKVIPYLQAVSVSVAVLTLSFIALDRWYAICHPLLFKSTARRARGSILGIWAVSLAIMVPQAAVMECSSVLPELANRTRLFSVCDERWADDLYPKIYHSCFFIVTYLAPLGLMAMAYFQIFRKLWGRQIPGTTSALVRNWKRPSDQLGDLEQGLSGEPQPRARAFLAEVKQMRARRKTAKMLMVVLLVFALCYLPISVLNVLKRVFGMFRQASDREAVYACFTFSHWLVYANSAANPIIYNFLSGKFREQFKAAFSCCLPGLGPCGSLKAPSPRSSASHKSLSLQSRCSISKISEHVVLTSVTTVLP
T1 sequence (O43614 whole entry): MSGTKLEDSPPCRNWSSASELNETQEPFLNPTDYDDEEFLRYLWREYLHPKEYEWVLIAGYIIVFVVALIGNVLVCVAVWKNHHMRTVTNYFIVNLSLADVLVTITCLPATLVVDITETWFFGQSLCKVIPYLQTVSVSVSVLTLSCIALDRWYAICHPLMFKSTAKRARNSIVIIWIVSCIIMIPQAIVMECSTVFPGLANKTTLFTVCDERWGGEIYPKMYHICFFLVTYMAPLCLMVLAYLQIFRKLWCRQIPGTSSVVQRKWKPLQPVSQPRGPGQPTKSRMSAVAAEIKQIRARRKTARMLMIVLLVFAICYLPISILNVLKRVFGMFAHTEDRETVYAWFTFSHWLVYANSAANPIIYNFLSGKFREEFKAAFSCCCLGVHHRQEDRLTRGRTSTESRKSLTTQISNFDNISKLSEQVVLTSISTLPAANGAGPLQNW

Structure (SMILES) | Ki [1] | Ki [2] | also measured
Cc1ccc(-c2nccs2)c(C(=O)N2C(COc3ccc(F)cc3)CC3CC2C3)n1 (single isomer, unassigned) [Example 6, (3S or 3R) 3-(4-fluorophenoxymethyl)-2-{[6-methyl-3-(1,3-thiazol-2-yl)pyridin-2-yl]carbonyl}-2-azabicyclo[3.1.1]heptane] | 93.3 nM | 5.13 nM | –
Cc1nc(C(=O)N2C(COc3nc4ccc(F)cc4s3)CC3CC2C3)c(-c2ccccc2)s1 (stereo not drawn) [Example 54] | – | – | OX2 pKi (SPA binding) ([3]; Table 1, [3H]EMPA 2 nM): 7.03; OX1 pKi (SPA binding) ([4]; Table 1, [3H]SB-674042 2 nM): 7.77
C[C@@H]1C2CC(C2)N(C(=O)c2nn(C)cc2-c2ccccc2)C1CNc1ccc(C(F)(F)F)cn1 (single isomer, unassigned) [Example 211, N-{[(3S,4R) or (3R,4R)-4-methyl-2-(1-methyl-4-phenyl-1H-pyrazole-3-carbonyl)-2-azabicyclo[3.1.1]heptan-3-yl]methyl}-5-(trifluoromethyl)pyridin-2-amine] | – | – | OX2 pKi (SPA binding) ([3]; Table 2, [3H]EMPA 2 nM): 6.25; OX1 pKi (SPA binding) ([4]; Table 2, [3H]SB-674042 2 nM): 8.91
Cc1ccc(-n2nccn2)c(C(=O)N2C3CC(C3)[C@@H](C)C2CNc2cncc(C(F)(F)F)n2)n1 (mixture of isomers) [Example 217, cis-N-({4-methyl-2-[6-methyl-3-(2H-1,2,3-triazol-2-yl)pyridine-2-carbonyl]-2-azabicyclo[3.1.1]heptan-3-yl}methyl)-6-(trifluoromethyl)pyrazin-2-amine] | – | – | OX2 pKi (SPA binding) ([3]; Table 2, [3H]EMPA 2 nM): 5.29; OX1 pKi (SPA binding) ([4]; Table 2, [3H]SB-674042 2 nM): 6.85
Cc1nc(C(=O)N2C(COc3ccc(Cl)cc3)CC3CC2C3)c(-c2ccccc2)s1 (stereo not drawn) [Example 49] | – | – | OX2 pKi (SPA binding) ([3]; Table 1, [3H]EMPA 2 nM): 6.81; OX1 pKi (SPA binding) ([4]; Table 1, [3H]SB-674042 2 nM): 7.88
Cc1ccc(-c2ncccn2)c(C(=O)N2C3CC(C3)[C@@H](C)C2CNc2cnc(C(F)(F)F)cn2)n1 (mixture of isomers) [Example 248, cis-N-({4-methyl-2-[6-methyl-3-(pyrimidin-2-yl)pyridine-2-carbonyl]-2-azabicyclo[3.1.1]heptan-3-yl}methyl)-5-(trifluoromethyl)pyrazin-2-amine] | – | – | OX2 pKi (SPA binding) ([3]; Table 2, [3H]EMPA 2 nM): 4.58; OX1 pKi (SPA binding) ([4]; Table 2, [3H]SB-674042 2 nM): 7.76
Cc1ccc(-n2nccn2)c(C(=O)N2C3CC(C3)[C@@H](C)C2COc2ccc(F)cc2)c1 (stereo partly drawn) [Example 97, cis-3-[(4-fluorophenoxy)methyl]-4-methyl-2-[5-methyl-2-(2H-1,2,3-triazol-2-yl)benzoyl]-2-azabicyclo[3.1.1]heptane] | – | – | OX2 pKi (SPA binding) ([3]; Table 1, [3H]EMPA 2 nM): 6.51; OX1 pKi (SPA binding) ([4]; Table 1, [3H]SB-674042 2 nM): 7.74
C[C@@H]1C2CC(C2)N(C(=O)c2cc(C#N)ccc2-n2nccn2)C1CNc1nc2ccc(F)cc2s1 (stereo partly drawn) [Example 175, cis-3-(3-{[(6-fluoro-1,3-benzothiazol-2-yl)amino]methyl}-4-methyl-2-azabicyclo[3.1.1]heptane-2-carbonyl)-4-(2H-1,2,3-triazol-2-yl)benzonitrile] | – | – | OX2 pKi (SPA binding) ([3]; Table 2, [3H]EMPA 2 nM): 6.02; OX1 pKi (SPA binding) ([4]; Table 2, [3H]SB-674042 2 nM): 8.41
C[C@@H]1C2CC(C2)N(C(=O)c2cc(F)ccc2-n2nccn2)C1CNc1ncc(C(F)(F)F)cn1 (stereo partly drawn) [Example 251] | – | – | OX2 pKi (SPA binding) ([3]; Table 2, [3H]EMPA 2 nM): 4.69; OX1 pKi (SPA binding) ([4]; Table 2, [3H]SB-674042 2 nM): 7.65
Cc1cnc(-c2ccc(C)nc2C(=O)N2C3CC(C3)[C@@H](C)C2COc2ccc(F)cc2)nc1 (mixture of isomers) [Example 138, cis-3-[(4-fluorophenoxy)methyl]-4-methyl-2-[6-methyl-3-(5-methylpyrimidin-2-yl)pyridine-2-carbonyl]-2-azabicyclo[3.1.1]heptane] | – | – | OX2 pKi (SPA binding) ([3]; Table 2, [3H]EMPA 2 nM): 7.05; OX1 pKi (SPA binding) ([4]; Table 2, [3H]SB-674042 2 nM): 8.08
Cc1nc(C(=O)N2C3CC(C3)[C@@H](C)C2CNc2nc3ccc(F)cc3s2)c(-c2ncccn2)s1 (single isomer, unassigned) [Example 164, 6-fluoro-N-({(3R,4S) or (3S,4R)4-methyl-2-[2-methyl-5-(pyrimidin-2-yl)-1,3-thiazole-4-carbonyl]-2-azabicyclo[3.1.1]heptan-3-yl}methyl)-1,3-benzothiazol-2-amine] | – | – | OX2 pKi (SPA binding) ([3]; Table 2, [3H]EMPA 2 nM): 5.68; OX1 pKi (SPA binding) ([4]; Table 2, [3H]SB-674042 2 nM): 8.93
Cc1nc(C(=O)N2C(COc3cnc4ccccc4n3)CC3CC2C3)c(-c2ccccc2)s1 (stereo not drawn) [Example 58] | – | – | OX2 pKi (SPA binding) ([3]; Table 1, [3H]EMPA 2 nM): 6.76; OX1 pKi (SPA binding) ([4]; Table 1, [3H]SB-674042 2 nM): 7.4
Cc1ccc(-n2nccn2)c(C(=O)N2C3CC(C3)[C@H](C)C2COc2ccc(Cl)cc2)n1 (stereo partly drawn) [Example 112, trans-3-[(4-chlorophenoxy)methyl]-4-methyl-2-[6-methyl-3-(2H-1,2,3-triazol-2-yl)pyridine-2-carbonyl]-2-azabicyclo[3.1.1]heptane] | – | – | OX2 pKi (SPA binding) ([3]; Table 1, [3H]EMPA 2 nM): 5.92; OX1 pKi (SPA binding) ([4]; Table 1, [3H]SB-674042 2 nM): 7.83

Further lines, with some results ahead:

Ki [1] | Ki [2] | Structure (SMILES) | also measured
347 nM | 14.8 nM | Cc1ccc(-n2nccn2)c(C(=O)N2C(COc3ccc(F)cc3)CC3CC2C3)c1 (racemic) [Example 10] | –
589 nM | 28.8 nM | Cc1ccc(-c2ncccn2)c(C(=O)N2C3CC(C3)[C@@H](C)C2COc2ccc(F)cn2)c1 (stereo partly drawn) [Example 74] | –
52.5 nM | 4.07 nM | Cc1ccc(-c2ncccn2)c(C(=O)N2C(COc3ccc(F)cc3)CC3CC2C3)n1 (single isomer, unassigned) [Example 15, (3S or 3R) 3-(4-fluorophenoxymethyl)-2-{[6-methyl-3-(pyrimidin-2-yl)pyridin-2-yl]carbonyl}-2-azabicyclo[3.1.1]heptane] | –
513 nM | 72.4 nM | Cc1ccc(-c2ncccn2)c(C(=O)N2C(COc3ccc(Cl)cn3)CC3CC2C3)c1 (racemic) [Example 32] | –
617 nM | 46.8 nM | Cc1ccc(-n2nccn2)c(C(=O)N2C(COc3ccc(F)cn3)CC3CC2C3)c1 (single isomer, unassigned) [Example 29, (3S or 3R) 3-{[(5-fluoropyridin-2-yl)oxy]methyl}-2-{[5-methyl-2-(2H-1,2,3-triazol-2-yl)phenyl]carbonyl}-2-azabicyclo[3.1.1]heptane] | –
295 nM | 12.9 nM | Cc1ccc(-c2ncccn2)c(C(=O)N2C3CC(C3)C(C)C2COc2ccc(F)cc2)c1 (mixture of isomers) [Example 69, CIS/TRANS 3-(4-fluorophenoxymethyl)-4-methyl-2-[5-methyl-2-(pyrimidin-2-yl)benzoyl]-2-azabicyclo[3.1.1]heptane] | –
2450 nM | 13.5 nM | Cc1ccc(-c2ncccn2)c(C(=O)N2C3CC(C3)[C@H](C)[C@H]2COc2ccc(F)cc2)c1 (single isomer, unassigned) [Example 70, (3S,4S or 3R,4R) 3-(4-fluorophenoxymethyl)-4-methyl-2-[5-methyl-2-(pyrimidin-2-yl)benzoyl]-2-azabicyclo[3.1.1]heptane] | –
209 nM | 30.2 nM | Cc1ccc(-c2nccs2)c(C(=O)N2C(COc3ccc(F)cn3)CC3CC2C3)c1 (racemic) [Example 25] | –
631 nM | 74.1 nM | Cc1ccc(-c2ncccn2)c(C(=O)N2C(COc3ccc(C(F)(F)F)cn3)CC3CC2C3)c1 (racemic) [Example 35] | –
105 nM | 10.5 nM | Cc1ccc(-c2ncccn2)c(C(=O)N2C3CC(C3)[C@@H](C)C2COc2ccc(F)cn2)c1 (single isomer, unassigned) [Example 75, (3S,4R or 3R,4S) 3-{[(5-fluoropyridin-2-yl)oxy]methyl}-4-methyl-2-[5-methyl-2-(pyrimidin-2-yl)benzoyl]-2-azabicyclo[3.1.1]heptane] | –
234 nM | 35.5 nM | Cc1ccc(-c2ncccn2)c(C(=O)N2C3CC(C3)C(C)C2COc2ccc(F)cn2)n1 (mixture of isomers) [Example 78, CIS/TRANS 3-{[(5-fluoropyridin-2-yl)oxy]methyl}-4-methyl-2-[6-methyl-3-(pyrimidin-2-yl)pyridine-2-carbonyl]-2-azabicyclo[3.1.1]heptane] | –
537 nM | 28.8 nM | Cc1ccc(-c2ncccn2)c(C(=O)N2C(COc3ccc(F)cc3)CC3CC2C3)c1 (racemic) [Example 16] | –
79.4 nM | 3.98 nM | Cc1ccc(-c2nccs2)c(C(=O)N2C(COc3ccc(F)cc3)CC3CC2C3)c1 (single isomer, unassigned) [Example 9, (3S or 3R) 3-(4-fluorophenoxymethyl)-2-{[5-methyl-2-(1,3-thiazol-2-yl)phenyl]carbonyl}-2-azabicyclo[3.1.1]heptane] | –
224 nM | 22.4 nM | Cc1ccc(-c2ncccn2)c(C(=O)N2C(CCOc3ccc(F)cc3)CC3CC2C3)c1 (racemic) [Example 41] | –
141 nM | 7.08 nM | Cc1ccc(-c2nccs2)c(C(=O)N2C(COc3ccc(F)cc3)CC3CC2C3)c1 (racemic) [Example 7] | –
1050 nM | 6.31 nM | Cc1nc(C(=O)N2C3CC(C3)C(C)C2COc2cc3ccccc3cn2)c(-c2ccccc2)s1 (mixture of isomers) [Example 85, CIS/TRANS 3-{[4-methyl-2-(2-methyl-5-phenyl-1,3-thiazole-4-carbonyl)-2-azabicyclo[3.1.1]heptan-3-yl]methoxy}isoquinoline] | –
– | 22.9 nM | Cc1ccc(-c2nccs2)c(C(=O)N2C(COc3ccc(Cl)cc3)CC3CC2C3)c1 (stereo not drawn) [Example 20] | –
110 nM | 24 nM | Cc1ccc(-c2ncccn2)c(C(=O)N2C(COc3ccc(Cl)cn3)CC3CC2C3)c1 (single isomer, unassigned) [Example 33, (3S or 3R) 3-{[(5-chloropyridin-2-yl)oxy]methyl}-2-{[5-methyl-2-(pyrimidin-2-yl)phenyl]carbonyl}-2-azabicyclo[3.1.1]heptane] | –
138 nM | 0.741 nM | Cc1nc(C(=O)N2C3CC(C3)[C@H](C)[C@@H]2COc2ccc(F)cc2)c(-c2ccccc2)s1 (single isomer, unassigned) [Example 68, (3S,4R or 3R,4S) 3-(4-fluorophenoxymethyl)-4-methyl-2-(2-methyl-5-phenyl-1,3-thiazole-4-carbonyl)-2-azabicyclo[3.1.1]heptane] | –
